Reference: PubChem BioAssay (NCI)
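Exposure lasted 48 hours, with cells grown in 96-well plates and compounds tested at five concentrations. TGI denotes the concentration required for complete inhibition of growth.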

How the values were obtained:
Assay in all cases: NCI-60 cell line screen, 48 h
[1] = test system: A498 renal
[2] = test system: CCRF-CEM leukemia
[3] = test system: SF-539 CNS
[4] = test system: MALME-3M melanoma
[5] = test system: NCI/ADR-RES ovarian
[6] = test system: HCC-2998 colon
[7] = test system: MCF7 breast
[8] = test system: MDA-N
[9] = test system: HOP-92 NSCLC
[10] = test system: SW-620 colon
[11] = test system: ACHN renal
[12] = test system: SF-268 CNS
[13] = test system: NCI-H522 lung
[14] = test system: DU-145 prostate
[15] = test system: MDA-MB-435
[16] = test system: EKVX NSCLC
[17] = test system: HOP-62 NSCLC
[18] = test system: KM12 colon
[19] = test system: TK-10 renal
[20] = test system: PC-3 prostate

| SMILES | TGI [1] [µM] | TGI [2] [µM] | TGI [3] [µM] | TGI [4] [µM] | TGI [5] [µM] | TGI [6] [µM] | TGI [7] [µM] | TGI [8] [µM] | TGI [9] [µM] | TGI [10] [µM] | TGI [11] [µM] | TGI [12] [µM] | TGI [13] [µM] | TGI [14] [µM] | TGI [15] [µM] | TGI [16] [µM] | TGI [17] [µM] | TGI [18] [µM] | TGI [19] [µM] | TGI [20] [µM] |
| --- | --- | --- | --- | --- | --- | --- | --- | --- | --- | --- | --- | --- | --- | --- | --- | --- | --- | --- | --- | --- |
| N=C(N)SCc1ccc2c(c1)Sc1ccccc1O2 | 52.3 | > 54.1 | 7.79 | 23.1 | 34.6 | 6.89 | 13.5 | 19 | 26.8 | 34 | 16.9 | 27.8 | 3.09 | 28.7 | 19.1 | 27 | 34.1 | 16.4 | 14.1 | 16.5 |
| CCCCC(C(=O)NCCNC(=O)CCC(=O)N(C)O)C(=O)NCCNC(=O)CCC(=O)N(C)O | > 100 | > 100 | > 100 | > 100 | > 100 | > 100 | > 100 | > 100 | > 100 | > 100 | > 100 |  | > 100 | > 100 | > 100 | > 100 | > 100 | > 100 | > 100 | > 100 |
| CC1=NN(c2cccc(Cl)c2)C2(C1=C/C=C/c1ccccc1)C(Cl)C(=O)N2c1nc2ccccc2s1 (stereo unspecified) | > 66 | > 59.3 | > 86.1 | > 100 | > 100 | 86.8 | > 100 | > 100 | > 53.2 | > 96.1 | > 42.3 | 56.1 | 47.4 | > 38.2 | > 58.4 | > 100 | > 100 | > 67.5 | > 100 | > 82.9 |
| CC(=O)Nc1nc(C#N)[nH]c1C#N | > 100 | > 100 | > 100 | > 100 | > 100 | > 100 | > 100 | > 100 | > 100 | > 100 | > 100 | > 100 | > 100 | > 100 | > 100 | > 100 | > 100 | > 100 | > 100 | > 100 |
| CC1(C)CCCC2OC2CCC(C)(C)C1=O (stereo unspecified) | > 100 | > 100 | > 100 | > 100 | > 100 | > 100 | > 100 | > 100 | > 100 | > 100 | > 100 | > 100 | > 100 | > 100 | > 100 | > 100 | > 100 | > 100 | > 100 | > 100 |
| COc1ccc2c(c1)OCC1Cc3ccccc3OC21 (stereo unspecified) | > 10 | > 100 | > 100 | > 100 | > 100 | > 100 | > 100 | > 10 | > 100 | > 100 | > 100 | > 100 | > 100 | > 100 | > 100 | > 100 | > 100 | > 100 | > 100 | > 100 |
| O=C1NCCN1/N=C/c1c(Cl)n(-c2ccccc2)c2ccccc12 | 45.8 | > 100 | 33.7 | 42.7 | 49.6 | 36.2 | 67.3 | 21.6 | 49.7 | 53.4 | 62 | 59 | 44.4 | 48.4 | 33.1 | 91.5 | > 100 | 34.2 | 43.6 | 98.8 |
| CCOC(=O)c1cn2c(nc1=O)N[C@H]1CCCC[C@@H]12 | > 100 | > 100 | > 100 | > 100 | > 100 | > 100 | > 100 | > 100 | > 100 | > 100 | > 100 | > 100 | > 100 | > 100 | > 100 | > 100 |  | > 100 | > 100 | > 100 |
| COc1ccc(-c2nc(SCC(=O)N/N=C/c3ccc(N(C)C)cc3)[nH]c2-c2ccc(OC)cc2)cc1 | > 100 | > 100 | > 100 | > 100 | > 100 | > 100 | > 100 | > 100 | > 100 | > 100 | > 100 | > 100 | > 100 | > 100 | > 100 | > 100 | > 100 | > 100 | > 100 | > 100 |
| NS(=O)(=O)c1cc(Cl)c(NC(=S)NC(=O)Nc2ccc(Cl)c(Cl)c2)c(Cl)c1 | 84.4 | > 100 | 90.7 | > 100 | > 100 | > 100 | 53.8 | > 100 | > 100 | > 100 | > 100 | > 100 | 86.4 | > 100 | > 100 | > 100 | > 100 | > 100 | > 100 | > 100 |
| CN1CSC(=S)N(c2c3ccccc3nc3ccc(Br)cc23)C1 | 27 | 22.8 | 25.7 | 33.2 | 30.9 | 8.3 | 24.1 | 25.3 | 32.7 | 23.8 | 19.5 | 27.4 | 12.6 | 22 | 26.5 | 33.1 | 51 | 33.6 | 21.9 | 26.3 |
| O=c1[nH]c(Nc2nc3ccccc3[nH]2)nc(O)c1-c1ccccc1 | > 100 | > 100 | > 100 | > 100 | > 100 | > 100 | > 100 | > 100 | > 100 | > 100 | > 100 | > 100 | > 100 | > 100 | > 100 |  | > 100 |  | > 100 | > 100 |
| Cc1ccc(S(=O)(=O)N/N=C/C2(c3ccccc3)c3ccccc3-c3ccccc32)cc1 | 33 | > 100 | 30.9 | 19.2 | 24.6 | 26.3 | 29.6 | 14.9 | 25.5 | 31 | 88.3 | 52.7 | 28.6 | 27.1 | 24.4 | 30.2 | 32.1 | 20.2 | 98.5 | 13.4 |
| Cc1cccc2c1CC1(C2)Cc2c(C)cccc2C1=O (stereo unspecified) | 88.9 | 56.9 | 57.1 | 49.7 | > 100 | 65.1 | 94.7 | 61.8 | 41.9 | > 100 | 84.3 | 87.1 | 59.3 | 77.3 | 55.8 | 72.8 | 54.5 | 51.5 | 92.1 | > 100 |
| COc1ccc2c(c1)/C(=C\c1c(Cl)nc3sc(C)cn13)C(=O)N2 | 16.6 | 6.15 | 6.76 | 19.9 | 17.7 | 18.3 | 14.2 | 2.04 | 23.1 | 11.7 | 20.1 | 17.3 | 14.4 | 18.2 | 1.43 | 21.2 | 19.4 | 15.2 | 19.1 | 12.4 |
| O=c1[nH]c(=O)n(C2OC(CO)C(O)C2O)c2nc(-c3ccc(-c4ccccc4)cc3)cnc12 (stereo unspecified) | > 100 | > 100 | > 100 | > 100 | > 100 | > 100 | > 100 | > 100 | > 100 | > 100 | > 100 | > 100 | > 100 | > 100 | > 100 | > 100 | > 100 | > 100 | > 100 | > 100 |
| O=C(/C=C/c1ccc2c(c1)OCO2)CC(=O)C(=O)c1c[nH]c2ccccc12 | > 100 | 69.4 | > 100 | > 100 | > 100 | 48.4 | > 100 | 91.3 | > 100 | > 100 | > 100 | > 100 | > 100 | > 100 | 68.5 | > 100 | > 100 | > 100 | > 100 | > 100 |
